Source: paper PMC4272272 (PLoS ONE, 2014)
Where two headings read alike, the source gives them in different places.

What was measured:
[1] = test system: albumin and α-acidic glycoprotein; details: plasma protein binding; cited from earlier work
Source text: Insulin treatment remains the main therapy for the control of hyperglycemia in diabetic patients with ESRD requiring hemodialysis, but it sometimes induces severe hypoglycemia.

[2] = Safety assessment (adverse events, physical examination, vital signs) after liraglutide; assay type: in vivo, human; details: off-hemodialysis (day 2) or on-hemodialysis (day 3); 0.6 or 0.9 mg s.c.; 10 patients
Experimental: The severity and causal relationship to liraglutide of all treatment-related adverse events in these patients were assessed by the investigators. A physical examination, including vital signs (blood pressure and heart rate) and clinical laboratory biochemical tests, was also performed on each patient.

[3] = cited from earlier work; for Liraglutide AUC lower than in healthy subjects, on average: single dose, ref 1 (Jacobsen et al., 2009) of supplement
[4] = parameters: method as in PMID 23445717; details: cited from earlier work
plasma glucose = details: CGM, mean ± SD, n = 10
Experimental: CGM was performed both off-hemodialysis (day 2) and on-hemodialysis (day 3).
The mean, maximum, and minimum glucose concentrations; SD; and MAGE were analyzed using a paired t-test and 95% confidence interval (CI) for the mean ratio (on-hemodialysis/off-hemodialysis). Because these values could be logarithmically transformed, the transformed data were used for analyses. […] In these cases, the original non-transformed values were analyzed by paired t-test. […] Values of p<0.05 were considered significant.

[5] = parameters: method as in earlier work; details: ref 2 (Ishida et al., 2011) of supplement, cited from earlier work
[6] = human, in vivo; cited from earlier work

Compound: CCCCCCCCCCCCCCCC(=O)N[C@@H](CCC(=O)NCCCC[C@H](NC(=O)[C@H](C)NC(=O)[C@H](C)NC(=O)[C@H](CCC(N)=O)NC(=O)CNC(=O)[C@H](CCC(=O)O)NC(=O)[C@H](CC(C)C)NC(=O)[C@H](Cc1ccc(O)cc1)NC(=O)[C@H](CO)NC(=O)[C@H](CO)NC(=O)[C@@H](NC(=O)[C@H](CC(=O)O)NC(=O)[C@H](CO)NC(=O)[C@@H](NC(=O)[C@H](Cc1ccccc1)NC(=O)[C@@H](NC(=O)CNC(=O)[C@H](CCC(=O)O)NC(=O)[C@H](C)NC(=O)[C@@H](N)Cc1cnc[nH]1)[C@@H](C)O)[C@@H](C)O)C(C)C)C(=O)N[C@@H](CCC(=O)O)C(=O)N[C@@H](Cc1ccccc1)C(=O)N[C@H](C(=O)N[C@@H](C)C(=O)N[C@@H](Cc1c[nH]c2ccccc12)C(=O)N[C@@H](CC(C)C)C(=O)N[C@H](C(=O)N[C@@H](CCCNC(=N)N)C(=O)NCC(=O)N[C@@H](CCCNC(=N)N)C(=O)NCC(=O)O)C(C)C)[C@@H](C)CC)C(=O)O [liraglutide]
- Liraglutide binding to albumin and α-acidic glycoprotein [1]: approximately 99%
- Adverse events, including signs of hypoglycemia [2]: No adverse events
- Liraglutide AUC lower than in healthy subjects, on average ([3]; end-stage renal disease): 26%
- Liraglutide AUC lower than in healthy subjects, on average ([3]; mild renal impairment): 33%
- Liraglutide AUC lower than in healthy subjects, on average ([3]; moderate renal impairment): 14%
- Liraglutide AUC lower than in healthy subjects, on average ([3]; severe renal impairment): 27%
- Adverse events ([3]; single injection 0.75 mg, non-diabetic Caucasian patients with varying degrees of renal impairment): 2 events of vomiting and 1 event of nausea
- Adverse events ([4]; 0.3 mg/day, nine diabetic Japanese patients with ESRD): no adverse events
- Mean period of hypoglycemia after liraglutide administration ([4]; 0.3 mg, diabetic patients with ESRD undergoing hemodialysis): approximately 50 min/day
- AUC during 24 hr in hyperglycemia (>180 mg/dL) (plasma glucose; off-hemodialysis (day 2)): 7746.0 ± 17246.4 mg·min/dL
- MAGE (mean amplitude of glycemic excursions) (plasma glucose; off-hemodialysis (day 2)): 55.6 ± 27.4 mg/dL
- Minimum glucose level (plasma glucose; off-hemodialysis (day 2)): 92.7 ± 27.1 mg/dL
- Time during 24 hr in hyperglycemia (>180 mg/dL) (plasma glucose; off-hemodialysis (day 2)): 214.5 ± 388.4 min
- AUC during 24 hr in hyperglycemia (>180 mg/dL) (plasma glucose; on-hemodialysis (day 3)): 11427.5 ± 19184.4 mg·min/dL
- MAGE (mean amplitude of glycemic excursions) (plasma glucose; on-hemodialysis (day 3)): 90.0 ± 65.7 mg/dL
- Minimum glucose level (plasma glucose; on-hemodialysis (day 3)): 88.4 ± 21.4 mg/dL
- Time during 24 hr in hyperglycemia (>180 mg/dL) (plasma glucose; on-hemodialysis (day 3)): 210.0 ± 282.9 min
- Patients withdrawn from liraglutide treatment due to nausea ([5]; 19 patients switched from insulin): Two patients
- Hypoglycemia symptoms after the switch to liraglutide ([5]; 30% of the subjects complained before the switch): not observed
- Glycosylated haemoglobin 1c (HbA1c) after one month of liraglutide ([5]; from 5.3±0.5 before the switch from insulin, p= 0.07, 19 patients): 5.1±0.5
- Glycoalbumin (GA) after one-month treatment of liraglutide ([5]; from 21.0±2.2 before the switch from insulin, p= 0.02, 19 patients): 19.4±2.4%

Compound: exenatide
- AUC0–∞ in non-diabetic patients with ESRD relative to healthy controls [6]: 3.37 times
- Cmax in non-diabetic patients with ESRD relative to healthy controls [6]: 1.38 times
